Assays:
[1] = system: P. falciparum total protein synthesis; test: Assay of inhibition of protein synthesis, [3H]leucine incorporation; type: cell-based
Method: Assay of Inhibition of Protein Synthesis. Assay for inhibition of protein synthesis was similar to above except the culture and drug dilutions were in RPMI-1640 without leucine (Select-Amine, Life Technologies) and the sera was extensively dialyzed as described (21). Also, the cultures were adjusted to 1% parasitemia prior to the experiment. Microtitre plates were set up with drug dilutions as described above except cultures were incubated with drug for only 4 hours. [3,4,5-^3 H]-Leucine (Moravek Biochemicals, 122 Ci/mmol, 0.5 mCi/ml, 100 μCi) was diluted to 4 ml in RPMI without leucine. The radiolabeled leucine (20 μl, […]) was added to each well and the plates were further incubated for four hours. The microtitre plates were processed as above to quantitate the incorporated radiolabel.
Assay of inhibition. The effect of thiostrepton on growth and protein synthesis of P. falciparum was compared to anisomycin, since the effect of both of these drugs is on protein synthesis. To assay the effect of thiostrepton and anisomycin on the growth of P. faciparum, inhibition of the uptake and incorporation of [^3 H]hypoxanthine was quantitated at serial dilutions of the drugs on an in vitro culture of P. falciparum. […] Inhibition of the incorporation of [^3 H]leucine was also tested at the same dilutions of the drugs. […]

[2] = system: P. falciparum (strain 3D7); test: Assay of growth inhibition, [3H]hypoxanthine incorporation; type: cell-based
Method: Assay of Growth inhibition. Thiostrepton (1525 u/mg; Calbiochem) and anisomycin (Sigma) were dissolved at 100 mM in DMSO (Pierce). P. falciparum (strain 3D7) (44) was maintained in culture with human erythrocytes (5% hematocrit) in RPMI-1640 (Life Technologies) supplemented with HEPES and sodium bicarbonate and human sera (10%) under standard conditions (18,19). The growth inhibition assay was conducted as described (20). Briefly, the parasitemia was adjusted to 0.1% parasitemia, 2.5% hematocrit and 200 μl aliquots placed in wells of a microtitre dish. Serial dilutions of drugs were made in RPMI. Thiostrepton was diluted to 10 mM in DMSO before the serial dilutions in RPMI. Aliquots (20 μl) were added in triplicate to the cultures in the microtitre plate, mixing well. At the highest concentrations (final 0.2mM), thiostrepton precipitates. After incubation for 48 hours under standard conditions, [2,8-^3 H]-hypoxanthine Moravek Biochemicals, 12.5 Ci/mmol) in RPMI (20 μl, 0.05 mCi/ml) was added to each well. After incubation for a further 24 hours, the cultures were lysed and incorporated radioactivity was measured with an automated counter.
Assay of inhibition. The effect of thiostrepton on growth and protein synthesis of P. falciparum was compared to anisomycin, since the effect of both of these drugs is on protein synthesis. To assay the effect of thiostrepton and anisomycin on the growth of P. faciparum, inhibition of the uptake and incorporation of [^3 H]hypoxanthine was quantitated at serial dilutions of the drugs on an in vitro culture of P. falciparum. […] Inhibition of the incorporation of [^3 H]leucine was also tested at the same dilutions of the drugs. For anisomycin, total protein synthesis was inhibited 50% at the IC50 (0.511 μM) for inhibition of growth, with the concentration-response almost superimposable on that of protein synthesis. […] This would occur if organelle protein synthesis was the target of inhibition (29,30).

C=C(NC(=O)C(=C)NC(=O)c1csc(C2=N[C@@H]3c4csc(n4)[C@H]4NC(=O)c5csc(n5)[C@H]([C@](C)(O)[C@@H](C)O)NC(=O)[C@H]5CSC(=N5)/C(=C/C)NC(=O)[C@H]([C@@H](C)O)NC(=O)c5csc(n5)[C@]3(CC2)NC(=O)[C@H](C)NC(=O)C(=C)NC(=O)[C@H](C)NC(=O)[C@H]([C@@H](C)CC)N[C@@H]2C=Cc3c([C@H](C)O)cc(nc3[C@H]2O)C(=O)O[C@@H]4C)n1)C(N)=O [Thiostrepton, thiostrepton]
inhibition of total protein synthesis ([1]; at the IC50 for growth): only a negligible amount of inhibition
concentration required for almost complete inhibition of total protein synthesis ([1]; relative to the IC50 for growth): More than ten-fold higher concentrations than the IC50
IC50 ([2]; Plasmodium falciparum, 3D7, in vitro culture, [3H]hypoxanthine uptake and incorporation): 1800 nM
IC99 (near) ([2]; concentration used, near the IC99 value, this study): ~8 µM

Reference: patent US6313090A, “Methods for treating parasitic infection using thiopeptides” (The United States of America as represented by the …, priority 2000, dated 2001)
